Data from the OPERA property sets (Mansouri et al. 2018).
Converted amounts (≈) assume the structure as drawn.

SMILES	logP	solubility (25 °C)
CCCCCCCCCCCC(=O)OCCCC	6.51	–
CCCCCCCCCCc1ccccc1	–	0.011 µM (≈ 2.4 ng/mL)
CC/C=C\C/C=C\C/C=C\CCCCCCCC(=O)OC	6.29	–
CCCCCCCCCCCC(=O)OC	5.41	–
CCCCCCCCCCCCCCCCCC(=O)OC	8.35	–
CCCCC/C=C\C/C=C\CCCCCCCC(=O)OC	6.82	–
CCCCCCCCCCCC(=O)OCC	5.71	–
CCCCCCCC/C=C\CCCCCCCC(=O)OC	7.45	–
CCCCCCCC/C=C\CCCCCCCCCCCC(=O)OC	9.32	–
CCCCCCCCCCCCCCCC(=O)OC	7.38	–
CCCCCCCCCCCC(=O)OCCC	6.11	–
CCCCCCCCCCCC(=O)OCC(CC)CCCC (stereo not given)	8.03	–
CCCCCCCCCCCCCC(=O)OC	6.41	–
CCCCCCCCCCCCCCCCCCCCCC(=O)OC	10.2	–
CCCCCCCCCCCCCCCCCCCC(=O)OC	9.3	–
